Biological target: T1, androgen receptor (AR) (Homo sapiens, UniProt P10275, T878A)
T1 construct: endogenous in cells; host or cells: LNCAP
T1 sequence (P10275 1-920 T878A): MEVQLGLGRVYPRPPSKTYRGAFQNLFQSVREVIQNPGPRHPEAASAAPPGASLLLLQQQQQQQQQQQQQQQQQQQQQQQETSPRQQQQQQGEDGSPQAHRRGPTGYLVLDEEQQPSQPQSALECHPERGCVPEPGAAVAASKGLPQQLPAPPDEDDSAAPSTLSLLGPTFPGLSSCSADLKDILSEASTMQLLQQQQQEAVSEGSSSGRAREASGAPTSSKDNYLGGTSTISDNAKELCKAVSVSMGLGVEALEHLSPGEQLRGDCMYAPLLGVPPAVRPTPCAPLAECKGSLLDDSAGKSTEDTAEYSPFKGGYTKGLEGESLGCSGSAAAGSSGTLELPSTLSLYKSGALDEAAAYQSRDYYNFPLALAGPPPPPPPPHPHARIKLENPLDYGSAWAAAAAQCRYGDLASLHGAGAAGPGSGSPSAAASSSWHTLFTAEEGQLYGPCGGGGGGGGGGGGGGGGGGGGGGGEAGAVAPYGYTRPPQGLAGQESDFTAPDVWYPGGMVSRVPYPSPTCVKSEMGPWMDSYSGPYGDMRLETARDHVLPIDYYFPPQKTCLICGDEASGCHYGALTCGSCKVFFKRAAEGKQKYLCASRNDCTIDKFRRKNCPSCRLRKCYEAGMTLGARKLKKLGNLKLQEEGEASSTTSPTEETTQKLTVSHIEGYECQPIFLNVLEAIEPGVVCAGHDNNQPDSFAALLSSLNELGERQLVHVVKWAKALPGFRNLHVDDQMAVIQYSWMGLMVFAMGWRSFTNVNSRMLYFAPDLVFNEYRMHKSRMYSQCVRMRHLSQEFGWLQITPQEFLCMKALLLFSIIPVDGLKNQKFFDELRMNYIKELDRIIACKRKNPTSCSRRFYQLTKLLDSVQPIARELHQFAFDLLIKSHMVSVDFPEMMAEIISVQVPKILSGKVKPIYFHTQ
Experiment: AR degradation in LNCAP cells (Western blot)
Type: cell-based
Conditions: 24 hours after administration
Protocol: LNCAP, VCAP and 22Rv1 cells were plated in 24-well plates at 1.5×10E5 cells/well in the RPMI growth medium containing 10% FBS and 1% Penicillin Streptomycin, and then incubated at 37° C. overnight. The following day, the test compound was administered to the cells by using 1000× compound stock solution prepared in DMSO at various concentrations. After administration of the compound, the cells were then incubated at 37° C. for 24 hours. Upon completion, the cells were washed with PBS and protein was collected in Laemmli sample buffer (1×; VWR International). Proteins in cell lysate were separated by SDS-PAGE and transferred to Odyssey nitrocellulose membranes (Licor) with iblot® dry blotting transfer system (ThermoFisher). Nonspecific binding was blocked by incubating membranes with Intercept Blocking Buffer (Licor) for 1 hour at room temperature with gentle shaking. The membranes were then incubated overnight at 4° C. with Primary antibodies rabbit anti-AR (1:1,000, Cell Signaling, 5153) and mouse anti-GAPDH (1:5,000, Santa Cruz Biotechnology, sc-47724) diluted in Intercept Blocking Buffer containing 0.1% Tween 20. After washing 3 times with TBS-T, the membranes were incubated with IRDye® […] goat anti-mouse IgG (1:20,000, Licor) or IRDye® […] goat anti-rabbit IgG (1:20,000, Licor) for 1 hour. After TBS-T washes, membranes were rinsed in TBS and scanned on Odyssey® CLx Imaging System (Licor). The bands were quantified using Image Studio™ Software (Licor).
Tables 5 and 6 summarize the androgen receptor (AR) degradative activity of exemplary compounds in LNCAP, VCAP and 22Rv1 cell lines 24 hours after administration. DC50: compound concentration needed for 50% target protein degradation.

Row | Structure (SMILES) | DC50 [nM]
1 | C[C@@H]1CN(c2ccc(C#N)c3ncccc23)[C@@H](C)CN1C(=O)Nc1ccc(N2CCC(CN3CCN(c4cc5c(cc4F)C(=O)N(C4CCC(=O)NC4=O)C5=O)CC3)CC2)nc1 (stereo partly drawn) [Compound 2-22, (2R,5S)-4-(8-cyanoquinolin-5-yl)-N-(6-(4-((4-(2-(2,6-dioxopiperidin-3-yl)-6-fluoro-1,3-dioxoisoindolin-5-yl)piperazin-1-yl)methyl)piperidin-1-yl)pyridin-3-yl)-2,5-dimethylpiperazine-1-carboxamide] | > 100
2 | C[C@@H]1CN(c2ccc(C#N)c(C(F)(F)F)c2)[C@@H](C)CN1C(=O)Nc1ccc(N2CCC(CN3CCN(c4ccc5c(c4)CN([C@H]4CCC(=O)NC4=O)C5=O)CC3)CC2)c(F)c1 [Compound 1-50, (2R,5S)-4-(4-cyano-3-(trifluoromethyl)phenyl)-N-(4-(4-((4-(2-((S)-2,6-dioxopiperidin-3-yl)-1-oxoisoindolin-5-yl)piperazin-1-yl)methyl)piperidin-1-yl)-3-fluorophenyl)-2,5-dimethylpiperazine-1-carboxamide] | ≤ 10
3 | C[C@@H]1CN(c2ccc(C#N)c(C(F)(F)F)c2)[C@@H](C)CN1C(=O)Nc1ccc(N2CCC(CN3CCN(c4ccc5c(c4)C(=O)N(C4CCC(=O)NC4=O)C5=O)CC3)CC2)c(F)c1 (stereo partly drawn) [Compound 1-45, (2R,5S)-4-(4-cyano-3-(trifluoromethyl)phenyl)-N-(4-(4-((4-(2-(2,6-dioxopiperidin-3-yl)-1,3-dioxoisoindolin-5-yl)piperazin-1-yl)methyl)piperidin-1-yl)-3-fluorophenyl)-2,5-dimethylpiperazine-1-carboxamide] | ≤ 10
4 | C[C@@H]1CN(c2ccc(C#N)c3ncccc23)[C@@H](C)CN1C(=O)Nc1cnc(N2CCC(CN3CCN(c4ccc5c(c4)CN([C@H]4CCC(=O)NC4=O)C5=O)CC3)CC2)nc1 [Compound 2-10, (2R,5S)-4-(8-cyanoquinolin-5-yl)-N-(2-(4-((4-(2-((S)-2,6-dioxopiperidin-3-yl)-1-oxoisoindolin-5-yl)piperazin-1-yl)methy)piperidin-1-yl)pyrimidin-5-yl)-2,5-dimethylpiperazine-1-carboxamide] | > 100
5 | C[C@@H]1CN(c2ccc(C#N)c(Cl)c2)[C@@H](C)CN1C(=O)Nc1ccc(N2CCC(CN3CCN(c4ccc5c(c4)C(=O)N(C4CCC(=O)NC4=O)C5=O)CC3)CC2)cc1F (stereo partly drawn) [Compound 1-23, (2R,5S)-4-(3-chloro-4-cyanophenyl)-N-(4-(4-((4-(2-(2,6-dioxopiperidin-3-yl)-1,3-dioxoisoindolin-5-yl)piperazin-1-yl)methyl)piperidin-1-yl)-2-fluorophenyl)-2,5-dimethylpiperazine-1-carboxamide] | ≤ 10
6 | C[C@@H]1CN(c2ccc(C#N)c3ncccc23)[C@@H](C)CN1C(=O)Nc1ccc(N2CCC(CN3CCN(c4ccc5c(c4)C(=O)N(C4CCC(=O)NC4=O)C5=O)CC3)CC2)nc1 (stereo partly drawn) [Compound 2-9, (2R,5S)-4-(8-cyanoquinolin-5-yl)-N-(6-(4-((4-(2-(2,6-dioxopiperidin-3-yl)-1,3-dioxoisoindolin-5-yl)piperazin-1-yl)methyl)piperidin-1-yl)pyridin-3-yl)-2,5-dimethylpiperazine-1-carboxamide] | > 100
7 | C[C@@H]1CN(c2ccc(C#N)c3ncccc23)[C@@H](C)CN1C(=O)Nc1ccc(N2CCC(CN3CCN(c4ccc5c(c4)CN([C@H]4CCC(=O)NC4=O)C5=O)CC3)CC2)c(F)c1 [Compound 2-21, (2R,5S)-4-(8-cyanoquinolin-5-yl)-N-(4-(4-((4-(2-((S)-2,6-dioxopiperidin-3-yl)-1-oxoisoindolin-5-yl)piperazin-1-yl)methyl)piperidin-1-yl)-3-fluorophenyl)-2,5-dimethylpiperazine-1-carboxamide] | > 100
8 | C[C@H]1CN(C(=O)Nc2cnc(N3CCC(CN4CCN(c5ccc6c(c5)C(=O)N(C5CCC(=O)NC5=O)C6=O)CC4)CC3)nc2)CCN1c1ccc(C#N)c2ncccc12 (stereo partly drawn) [Compound 2-16, (3S)-4-(8-cyanoquinolin-5-yl)-N-(2-(4-((4-(2-(2,6-dioxopiperidin-3-yl)-1,3-dioxoisoindolin-5-yl)piperazin-1-yl)methyl)piperidin-1-yl)pyrimidin-5-yl)-3-methylpiperazine-1-carboxamide] | > 100
9 | C[C@@H]1CN(c2ccc(C#N)c3ncccc23)[C@@H](C)CN1C(=O)Nc1cc(F)c(N2CCC(CN3CCN(c4ccc5c(c4)CN([C@H]4CCC(=O)NC4=O)C5=O)CC3)CC2)cc1F [Compound 2-18, (2R,5S)-4-(8-cyanoquinolin-5-yl)-N-(4-(4-((4-(2-((S)-2,6-dioxopiperidin-3-yl)-1-oxoisoindolin-5-yl)piperazin-1-yl)methyl)piperidin-1-yl)-2,5-difluorophenyl)-2,5-dimethylpiperazine-1-carboxamide] | > 100
10 | C[C@@H]1CN(c2ccc(C#N)c(Cl)c2)[C@@H](C)CN1C(=O)Nc1cnc(N2CCC(CN3CCN(c4ccc5c(c4)CN([C@H]4CCC(=O)NC4=O)C5=O)CC3)CC2)nc1 [Compound 1-51, (2R,5S)-4-(3-chloro-4-cyanophenyl)-N-(2-(4-((4-(2-((S)-2,6-dioxopiperidin-3-yl)-1-oxoisoindolin-5-yl)piperazin-1-yl)methyl)piperidin-1-yl)pyrimidin-5-yl)-2,5-dimethylpiperazine-1-carboxamide] | ≤ 10
11 | C[C@@H]1CN(c2ccc(C#N)c3ncccc23)[C@@H](C)CN1C(=O)Nc1cnc(N2CCC(CN3CCN(c4ccc5c(c4)C(=O)N(C4CCC(=O)NC4=O)C5=O)CC3)CC2)nc1 (stereo partly drawn) [Compound 2-8, (2R,5S)-4-(8-cyanoquinolin-5-yl)-N-(2-(4-((4-(2-(2,6-dioxopiperidin-3-yl)-1,3-dioxoisoindolin-5-yl)piperazin-1-yl)methyl)piperidin-1-yl)pyrimidin-5-yl)-2,5-dimethylpiperazine-1-carboxamide] | > 100
12 | CC(C)N(CC1CCN(c2ccc(NC(=O)N3C[C@H](C)N(c4ccc(C#N)c5ncccc45)C[C@H]3C)cn2)CC1)C1CC(Oc2ccc3c(c2)C(=O)N(C2CCC(=O)NC2=O)C3=O)C1 (stereo partly drawn) [Compound 2-13, (2R,5S)-4-(8-cyanoquinolin-5-yl)-N-(6-(4-((((1r,3r)-3-((2-(2,6-dioxopiperidin-3-yl)-1,3-dioxoisoindolin-5-yl)oxy)cyclobutyl)(isopropyl)amino)methyl)piperidin-1-yl)pyridin-3-yl)-2,5-dimethylpiperazine-1-carboxamide] | > 100
13 | COc1cc(N2C[C@@H](C)N(C(=O)Nc3ccc(N4CCC(CN5CCN(c6ccc7c(c6)CN([C@H]6CCC(=O)NC6=O)C7=O)CC5)CC4)nc3)C[C@@H]2C)ccc1C#N [Compound 1-33, (2R,5S)-4-(4-cyano-3-methoxyphenyl)-N-(6-(4-((4-(2-((S)-2,6-dioxopiperidin-3-yl)-1-oxoisoindolin-5-yl)piperazin-1-yl)methyl)piperidin-1-yl)pyridin-3-yl)-2,5-dimethylpiperazine-1-carboxamide] | ≤ 10
14 | C[C@@H]1CN(c2ccc(C#N)c3ncccc23)[C@@H](C)CN1C(=O)Nc1ccc(N2CCC(CN3CCN(c4cc5c(cc4F)C(=O)N(C4CCC(=O)NC4=O)C5=O)CC3)CC2)c(F)c1 (stereo partly drawn) [Compound 2-24, (2R,5S)-4-(8-cyanoquinolin-5-yl)-N-(4-(4-((4-(2-(2,6-dioxopiperidin-3-yl)-6-fluoro-1,3-dioxoisoindolin-5-yl)piperazin-1-yl)methyl)piperidin-1-yl)-3-fluorophenyl)-2,5-dimethylpiperazine-1-carboxamide] | > 100

From patent US11420956B2, “Ureas having Androgen Receptor degradation activity and uses thereof” (ACCUTAR BIOTECHNOLOGY INC., priority 2019, dated 2022)
